The record followed here is patent publication US20230131899A1, “INHIBITORS OF MICROBIALLY INDUCED AMYLOID” (Axial Therapeutics, Inc., priority 2020, published 2023).

The target in the test is T1, E. coli CsgA (Escherichia coli, UniProt P28307).
T1 construct: made in house; host or cells: E. coli NEB 3016 slyD::kan, pET11d
Briefly: In vitro ThioflavinT assay of CsgA aggregation (CsgA ThT Assay). The format is biochemical. The conditions noted are these: for remaining activity at 25 µM: compound 25 μM; for remaining activity at 100 µM: compound 100 μM. A digest of the protocol:
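Purified C-terminal His-tagged CsgA, monomerised by desalting and 30-kDa filtration, at 2-20 μM with 20-40 μM ThT in 50 mM potassium phosphate pH 7.3, 1% DMSO, compounds 3.125-200 uM; room temperature, fluorescence (ex 438/em 495 nm) read every 15 min. Background-subtracted signal expressed as percent inhibition versus vehicle at 6-6.5 or 8-9 h, or as percent control AUC.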

[1] abbreviates: read-out: CsgA ThT Assay (2 μM CsgA) % Control Bmax 25 μM, activity range, class symbol, CsgA 2 μM, white plates.
[2] abbreviates: read-out: CsgA ThT Assay (2 μM CsgA) % Control Bmax 25 μM, mean Bmax as percentage of DMSO control, CsgA 2 μM, white plates.
[3] abbreviates: read-out: CsgA ThT Assay (2 μM CsgA) % Control Bmax 100 μM, activity range, class symbol, CsgA 2 μM, white plates.
Where [4] appears, read: read-out: CsgA ThT Assay (2 μM CsgA) % Control Bmax 100 μM, mean Bmax as percentage of DMSO control, CsgA 2 μM, white plates.
Where [5] appears, read: read-out: CsgA ThT Assay (10 μM CsgA) % Control AUC at 1005 minutes, 25 μM (activity range), CsgA 10 μM, black plates, 1005 minutes, class symbol.
[6] abbreviates: read-out: CsgA ThT Assay (10 μM CsgA) % Control AUC at 1005 minutes, 25 μM, mean AUC as % of DMSO control, CsgA 10 μM, black plates, 1005 minutes.
The mark [7] stands for this setting: read-out: CsgA ThT Assay (10 μM CsgA) % Control AUC at 1005 minutes, 100 μM (activity range), CsgA 10 μM, black plates, 1005 minutes, class symbol.
[8] abbreviates: read-out: CsgA ThT Assay (10 μM CsgA) % Control AUC at 1005 minutes, 100 μM, mean AUC as % of DMSO control, CsgA 10 μM, black plates, 1005 minutes.

Each structure is given as a SMILES string. Read-outs that look alike come from different tables or passages of the source.

T1 sequence (P28307 23-151): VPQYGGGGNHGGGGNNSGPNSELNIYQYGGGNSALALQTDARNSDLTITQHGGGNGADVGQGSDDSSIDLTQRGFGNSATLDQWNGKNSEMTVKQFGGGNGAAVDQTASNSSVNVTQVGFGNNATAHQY

For `CN(C)C(=O)c1c(Cc2cccc3ccccc23)c(-c2cccc(C(F)(F)F)c2)c2n(c1=O)C(C(=O)O)CN(C)S2(=O)=O` (stereo not shown) [Compound 173, 7-(dimethylcarbamoyl)-2-methyl-8-(naphthalen-1-ylmethyl)-6-oxo-9-(3-(trifluoromethyl)phenyl)-3,4-dihydro-2H,6H-pyrido[1,2-e] [1,2,5] thiadiazine-4-carboxylic acid 1,1-dioxide], the remaining activity at 25 µM under setting [1] was above 60% and the remaining activity at 25 µM under setting [2] amounted to 73%. Besides, the remaining activity at 100 µM was 31 to 60% under setting [3] and 40% under setting [4].

As for `CCCN1CC(C(=O)O)n2c(c(-c3cccc(C(F)(F)F)c3)c(Cc3cccc4ccccc34)c(C(N)=O)c2=O)S1(=O)=O` (stereo not shown) [Compound 172, 7-carbamoyl-8-(naphthalen-1-ylmethyl)-6-oxo-2-propyl-9-(3-(trifluoromethyl)phenyl)-3,4-dihydro-2H,6H-pyrido[1,2-e][1,2,5]thiadiazine-4-carboxylic acid 1,1-dioxide], the remaining activity at 25 µM under setting [1] lay within 11 to 31% and the remaining activity at 25 µM under setting [2] came to 26%. Besides, the remaining activity at 100 µM by setting is: under setting [3], 11 to 31%; under setting [4], 17%.

Take `O=C(O)C1CN(Cc2ccncc2)c2c(-c3cccc(C(F)(F)F)c3)c(Cc3cccc4ccccc34)c(Cl)c(=O)n21` (stereo not shown) [Compound 174, 6-chloro-7-(naphthalen-1-ylmethyl)-5-oxo-1-(pyridin-4-ylmethyl)-8-(3-(trifluoromethyl)phenyl)-1,2,3,5-tetrahydroimidazo[1,2-a]pyridine-3-carboxylic acid]: the remaining activity at 25 µM under setting [1] was above 60% and the remaining activity at 25 µM under setting [2] stood at 77%. The remaining activity at 100 µM under setting [3] lay in the range of 31 to 60% and the remaining activity at 100 µM under setting [4] was 60%.

As for `O=C(O)C1COc2c(-c3cccc(C(F)(F)F)c3)c(Cc3cccc4ccccc34)cc(=O)n21` (stereo not shown) [Compound 064, 7-(naphthalen-1-ylmethyl)-5-oxo-8-(3-(trifluoromethyl)phenyl)-2,3-dihydro-5H-oxazolo[3,2-a]pyridine-3-carboxylic acid], the remaining activity at 25 µM was 31 to 60% under setting [5] and 45% under setting [6]. Moreover, the remaining activity at 100 µM by setting is: under setting [7], 11 to 31%; under setting [8], 16%.

For the compound `O=C(O)C1CN(Cc2ccccc2)c2c(-c3cccc(C(F)(F)F)c3)c(Cc3cccc4ccccc34)c(F)c(=O)n21` (stereo not shown) [Compound 194, 1-benzyl-6-fluoro-7-(naphthalen-1-ylmethyl)-5-oxo-8-(3-(trifluoromethyl)phenyl)-1,2,3,5-tetrahydroimidazo[1,2-a]pyridine-3-carboxylic acid], the remaining activity at 25 µM was above 60% under setting [1] and 100% under setting [2]. Further, the remaining activity at 100 µM reads like this: under setting [3], above 60%; under setting [4], 67%.

Turning to `O=C(O)C1CN(Cc2cccc(O)c2)c2c(-c3cccc(C(F)(F)F)c3)c(Cc3cccc4ccccc34)c(Cl)c(=O)n21` (stereo not shown) [Compound 196, 6-chloro-1-(3-hydroxybenzyl)-7-(naphthalen-1-ylmethyl)-5-oxo-8-(3-(trifluoromethyl)phenyl)-1,2,3,5-tetrahydroimidazo[1,2-a]pyridine-3-carboxylic acid], the remaining activity at 25 µM runs as follows: under setting [1], above 60%; under setting [2], 67%.

In the case of `O=C(O)C1CN(CCCCCCCN2CC(C(=O)O)n3c2c(-c2cccc(C(F)(F)F)c2)c(Cc2cccc4ccccc24)c(Cl)c3=O)c2c(-c3cccc(C(F)(F)F)c3)c(Cc3cccc4ccccc34)c(Cl)c(=O)n21` (stereo not shown) [Compound 188, 1,1′-(heptane-1,7-diyl)bis(6-chloro-7-(naphthalen-1-ylmethyl)-5-oxo-8-(3-(trifluoromethyl)phenyl)-1,2,3,5-tetrahydroimidazo[1,2-a]pyridine-3-carboxylic acid)], the remaining activity at 25 µM reads like this: under setting [1], 31 to 60%; under setting [2], 33%. Moreover, the remaining activity at 100 µM is, setting by setting: under setting [3], 11 to 31%; under setting [4], 14%.

`CC1(C(=O)O)CNS(=O)(=O)c2c(-c3cccc(C(F)(F)F)c3)c(Cc3cccc4ccccc34)cc(=O)n21` (stereo not shown) [Compound 042, 4-methyl-8-(naphthalen-1-ylmethyl)-6-oxo-9-(3-(trifluoromethyl)phenyl)-3,4-dihydro-2H,6H-pyrido[1,2-e][1,2,5]thiadiazine-4-carboxylic acid 1,1-dioxide]: the remaining activity at 25 µM under setting [5] lay within 31 to 60% and the remaining activity at 25 µM under setting [6] was found to be 52%. Besides, the remaining activity at 100 µM was 11 to 31% under setting [7] and 18% under setting [8].

`Cn1c(=O)c2c(nc(CCCCCCCN3CC(C(=O)O)n4c(c(-c5cccc(C(F)(F)F)c5)c(Cc5cccc6ccccc56)cc4=O)S3(=O)=O)n2C)n(C)c1=O` (stereo not shown) [Compound 047, 8-(naphthalen-1-ylmethyl)-6-oxo-9-(3-(trifluoromethyl)phenyl)-2-(7-(1,3,7-trimethyl-2,6-dioxo-2,3,6,7-tetrahydro-1H-purin-8-yl)heptyl)-3,4-dihydro-2H,6H-pyrido[1,2-e][1,2,5]thiadiazine-4-carboxylic acid 1,1-dioxide]: the remaining activity at 25 µM was 31 to 60% under setting [5] and 55% under setting [6]. Besides, the remaining activity at 100 µM by setting is: under setting [7], above 60%; under setting [8], 71%.

As for `O=C(O)C1CN(CCc2ccccc2)c2c(-c3cccc(C(F)(F)F)c3)c(Cc3cccc4ccccc34)c(Cl)c(=O)n21` (stereo not shown) [Compound 178, 6-chloro-7-(naphthalen-1-ylmethyl)-5-oxo-1-phenethyl-8-(3-(trifluoromethyl)phenyl)-1,2,3,5-tetrahydroimidazo[1,2-a]pyridine-3-carboxylic acid], the remaining activity at 25 µM reads like this: under setting [1], 31 to 60%; under setting [2], 57%. The remaining activity at 100 µM is, setting by setting: under setting [3], below 10%; under setting [4], 9%.

For the compound `CN1CC(C(=O)O)n2c(c(-c3cccc(C(F)(F)F)c3)c(Cc3cccc4ccccc34)c(C(=O)N3CCOCC3)c2=O)S1(=O)=O` (stereo not shown) [Compound 160, 2-methyl-7-(morpholine-4-carbonyl)-8-(naphthalen-1-ylmethyl)-6-oxo-9-(3-(trifluoromethyl)phenyl)-3,4-dihydro-2H,6H-pyrido[1,2-e][1,2,5] thiadiazine-4-carboxylic acid 1,1-dioxide], the remaining activity at 25 µM runs as follows: under setting [1], above 60%; under setting [2], 101%. In addition, the remaining activity at 100 µM is above 60% under setting [3] and 116% under setting [4].

Take `CCCN1CC(C(=O)O)n2c(c(-c3cccc(C(F)(F)F)c3)c(Cc3cccc4ccccc34)c(NC(=O)CC)c2=O)S1(=O)=O` (stereo not shown) [Compound 153, 8-(naphthalen-1-ylmethyl)-6-oxo-7-propionamido-2-propyl-9-(3-(trifluoromethyl)phenyl)-3,4-dihydro-2H,6H-pyrido[1,2-e][1,2,5]thiadiazine-4-carboxylic acid 1,1-dioxide]: the remaining activity at 25 µM reads like this: under setting [1], above 60%; under setting [2], 91%. Besides, the remaining activity at 100 µM under setting [3] is above 60% and the remaining activity at 100 µM under setting [4] came out at 83%.
